2 molecules from patent US6599898B2, “Use of certain substituted caprolactam carbonates and ethers in treating tumors” (Novartis AG, priority 2000, dated 2003) can be followed below.

For assay [1], the system named is MDA-MB-435 tumor xenografts. As to the kind of experiment: Human tumor xenograft growing s.c. in athymic nude mice. It counts as in vivo, athymic nude mouse. To be noted: 3×/week for 3 weeks, * = p<0.05. How it is done: (§1) Utilizing this model, one can measure the ability of test compounds to inhibit the growth of human tumor xenografts growing subcutaneously (s.c.) in athymic nude mice. The histologic tumor type employed was MDA-MB-435 breast carcinoma for Ex.1 and 7 and A549 non-small cell lung carcinoma for Ex. 1-3.
MDA-MB-435 human breast carcinoma: Treatments were started 15 d post implantation (3×10^6 cells/mouse), when a mean tumor volume of approximately 45 mm^3 was reached. Ex. 1 and 7 were administered iv at three times per week for 3 weeks (days 15, 17, 20, 22, 24, 27, 29, and 31), at 3.3, 10, and 33 μmol/kg. Doxorubicin was administered iv at 2 mg/kg using the same schedule. Each data point represents tumor growth (mean±SEM), or body weight (mean), with an initial group size of n=8, from a representative experiment performed twice. An asterisk (*) indicates p<0.05 using a one-tailed Student's t-test.
Toxicity was monitored by recording average group body weights twice weekly, and by daily observation of general health. Efficacy was monitored by taking measurements of tumor length, width, and depth weekly using digital calipers coupled to automated data collectors. Mean tumor volume (MTV) at initiation of therapy was subtracted from final MTV in order to express the actual tumor growth during treatment (Δ MTV). Anti-tumor activity was expressed as % T/C(Δ MTV of treated group÷Δ MTV of control group×100%). Statistical significance was evaluated using a one-tailed Student's t-test (p<0.05).
A general note: In xenograft studies the graft and the host belong to different species.

In assay [2] the test system is MDA-MB-435 human breast carcinoma. As to the kind of experiment: Anchorage Dependent Growth Monolayer Assay (ADGMA), MTS. It counts as cell-based. To be noted: MDA-MB-435, 72 h, 3-day exposure, MTS A490, read-out: IC50 (average±S.D.) MDA-MB-435. How it is done: As indicated above, all of the compounds of formula I, and their corresponding pharmaceutically acceptable acid addition salts, are anti-tumor agents and are, therefore, useful in inhibiting the growth of various lymphomas, sarcomas, carcinomas, myelomas, and leukemia cell lines. […]
The ADGMA compares the number of viable cells following a 3-day exposure to a test compound relative to a number of cells present at the time the test compound was added. […] The absorbance at 490 nm (A490) of the formazan derivative is proportional to the number of viable cells. […]
Cell lines are trypsinized and counted using a Coulter counter to determine plating densities. […] The number of cells plates as determined in preliminary experiments, results in cell densities of 75-90% of confluency by 4 days after plating. Initial cell densities, assayed one day after plating, are roughly 0.15-0.20 absorbance units greater than the media blank. […] A490 of control plates is read 4 h after MTS addition to determine initial cell density values for each cell line. Three days after addition of test compound, 10 μL/well of MTS mixture is added to the test plates and A490 is read 4 h later. A490 values for wells containing cells are corrected for media absorbance, then normalized to initial density readings to determine percent net growth. […]

The test system of assay [3] is A549 tumor xenografts. As to the kind of experiment: Human tumor xenograft growing s.c. in athymic nude mice. It counts as in vivo, athymic nude mouse. To be noted: 5×/week for 2 weeks, recorded on day 24, * = p<0.05. How it is done: as §1
A549 non-small cell lung carcinoma: Treatments were started 17 d post-implantation (1×10^7 cells/mouse), when a mean tumor volume of approximately 120 mm^3 was reached. Ex. 1-3 were administered iv on days 17-21 (followed by 2 d rest, then a second cycle of treatment on days 24-28). Total daily doses of 10 or 30 μmol/kg were administered as a single injection. Data in this table were recorded on day 24, 3 d after the last treatment of the first cycle. An asterisk (*) indicates p<0.05 using a one-tailed Student's t-Test.
Toxicity was monitored by recording average group body weights twice weekly, and by daily observation of general health. Efficacy was monitored by taking measurements of tumor length, width, and depth weekly using digital calipers coupled to automated data collectors. […] Anti-tumor activity was expressed as % T/C(Δ MTV of treated group÷Δ MTV of control group×100%). Statistical significance was evaluated using a one-tailed Student's t-test (p<0.05).

Structures are written as SMILES.

One may read the IC50 as the point on the concentration scale where inhibition reaches its midpoint. As to `CCCCCCCCCCCOCC(=O)O[C@@H]1CC[C@H](NC(=O)[C@H](OC)[C@H](O)[C@@H](O)[C@H](O)/C=C/C(C)(C)C)C(=O)NC1` [Ex. 7, (2R,3R,4S,5R,6E)-3,4,5-trihydroxy-2-methoxy-8,8-dimethyl-N-[(3S,6R)-hexahydro-2-oxo-6-([[undecyloxy]acetyl]oxy)-2H-azepin-3-yl]non-6-enonamide], the “% T/C” value in assay [1] (3.3 μmol/kg iv) is recorded as 102%; in assay [1] (10 μmol/kg iv), 64%; in assay [1] (33 μmol/kg iv), 30* %. Also, the IC50 in assay [2] amounted to 61 ± 95 nM.
As for `CCCCCOC(=O)O[C@@H]1CC[C@H](NC(=O)[C@H](OC)[C@H](O)[C@@H](O)[C@H](O)/C=C/C(C)(C)C)C(=O)NC1` [Ex. 2, (2R,3R,4S,5R,6E)-3,4,5-trihydroxy-2-methoxy-8,8-dimethyl-N-[(3S,6R)-hexahydro-2-oxo-6-([[pentyloxy]carbonyl]oxy)-2H-azepin-3-yl]non-6-enonamide], the results for the “% T/C” value in assay [3] (10 μmol/kg iv daily) and in assay [3] (30 μmol/kg iv daily) were 32* % and 46* %, respectively.
